Measured values reported in US20220153746A1, “NITROGEN OXIDE-DONATING PDE-5 AND/OR PDE-6 INHIBITOR COMPOUNDS, AND USES THEREOF” (ILDONG PHARMACEUTICAL CO., LTD., priority 2020, published 2022).
pIC50: −log10 of the molar value. Like-named read-outs stand apart in the source and are kept apart here.

Tests used:
[1] = biological target: human PDE-5A1 (Homo sapiens, UniProt O76074); test: Human PDE-5A1 inhibition assay (fluorescence polarization, FAM-cGMP); assay type: biochemical; conditions: for IC50: read-out: IC50 (μM) PDE5A1
[2] = biological target: human PDE-6C (Homo sapiens, UniProt P51160); test: Human PDE-6C inhibition assay (fluorescence polarization, FAM-cGMP); assay type: biochemical; conditions: for IC50: read-out: IC50 (μM) PDE6C
Sequence of human PDE-6C (P51160 whole entry): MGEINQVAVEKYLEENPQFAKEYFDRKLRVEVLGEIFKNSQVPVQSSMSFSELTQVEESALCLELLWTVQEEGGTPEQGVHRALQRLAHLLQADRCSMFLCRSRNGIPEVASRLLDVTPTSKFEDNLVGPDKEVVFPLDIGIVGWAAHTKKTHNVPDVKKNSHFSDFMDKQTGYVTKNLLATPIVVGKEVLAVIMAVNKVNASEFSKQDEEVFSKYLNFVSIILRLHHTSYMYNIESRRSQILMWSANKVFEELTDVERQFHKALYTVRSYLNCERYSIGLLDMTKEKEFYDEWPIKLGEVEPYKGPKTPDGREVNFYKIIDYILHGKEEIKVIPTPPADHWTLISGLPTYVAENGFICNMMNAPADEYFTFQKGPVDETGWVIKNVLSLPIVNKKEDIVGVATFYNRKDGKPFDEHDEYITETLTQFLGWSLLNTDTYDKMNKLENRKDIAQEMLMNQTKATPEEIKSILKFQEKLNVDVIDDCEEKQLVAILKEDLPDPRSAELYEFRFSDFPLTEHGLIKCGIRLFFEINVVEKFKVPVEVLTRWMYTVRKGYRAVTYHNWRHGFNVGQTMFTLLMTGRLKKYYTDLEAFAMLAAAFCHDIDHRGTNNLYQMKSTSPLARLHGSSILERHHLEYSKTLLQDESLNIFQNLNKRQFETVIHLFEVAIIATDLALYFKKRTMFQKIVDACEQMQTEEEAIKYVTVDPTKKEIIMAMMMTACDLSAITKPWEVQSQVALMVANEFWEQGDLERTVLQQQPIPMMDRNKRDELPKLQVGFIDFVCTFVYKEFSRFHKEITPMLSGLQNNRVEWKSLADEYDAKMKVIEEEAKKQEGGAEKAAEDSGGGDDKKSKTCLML

Compound | IC50 [1] | further results
CCCc1nn(C)c2c(=O)[nH]c(-c3cc(S(=O)(=O)N4CC(N(C)CCO)C4)ccc3OCC)nc12 [Compound 12, 5-(2-ethoxy-5-((3-((2-hydroxyethyl)(methyl)amino)azetidin-1-yl)sulfonyl)phenyl)-1-methyl-3-propyl-1,6-dihydro-7H-pyrazolo[4,3-d]pyrimidin-7-one] | < 0.01 µM | IC50 [2]: < 0.01 µM
CCCc1nn(C)c2c(=O)[nH]c(-c3cc(S(=O)(=O)N4CC(CCCOC(=O)CCCCC(CO[N+](=O)[O-])O[N+](=O)[O-])C4)ccc3OCC)nc12 (centres unmarked) [Compound 68, 3-(1-((4-ethoxy-3-(1-methyl-7-oxo-3-propyl-6,7-dihydro-1H-pyrazolo[4,3-d]pyrimidin-5-yl)phenyl)sulfonyl)azetidin-3-yl)propyl 6,7-bis(nitrooxy)heptanoate] | – | pIC50 [1]: 7.00 to 8.00; pIC50 [2]: > 8.00
CCCc1nn(C)c2c(=O)[nH]c(-c3cc(S(=O)(=O)N4CC(OCCO)C4)ccc3OCC)nc12 [Compound 25, 5-(2-ethoxy-5-((3-(2-hydroxyethoxy)azetidin-1-yl)sulfonyl)phenyl)-1-methyl-3-propyl-1,6-dihydro-7H-pyrazolo[4,3-d] pyrimidin-7-one] | 0.01 to 0.1 µM | IC50 [2]: 0.01 to 0.1 µM
CCCc1nc(C)c2c(=O)[nH]c(-c3cc(S(=O)(=O)N4CC(CCO)C4)ccc3OCC)nn12 [Compound 43, 2-(2-ethoxy-5-((3-(2-hydroxyethyl)azetidin-1-yl)sulfonyl)phenyl)-5-methyl-7-propylimidazo[5,1-f][1,2,4]triazin-4(3H)-one] | < 0.01 µM | –
CCCc1nn(C)c2c(=O)[nH]c(-c3cc(S(=O)(=O)NC4CN(CCO[N+](=O)[O-])C4)ccc3OCC)nc12 [Compound 19, 2-(3-((4-ethoxy-3-(1-methyl-7-oxo-3-propyl-6,7-dihydro-1H-pyrazolo[4,3-d]pyrimidin-5-yl)phenyl)sulfonamido)azetidin-1-yl)ethyl nitrate] | < 0.01 µM | IC50 [2]: < 0.01 µM
CCCc1nc(C)c2c(=O)[nH]c(-c3cc(S(=O)(=O)N4CC(N(C)CCCO[N+](=O)[O-])C4)ccc3OCC)nn12 [Compound 64, 3-((1-((4-ethoxy-3-(5-methyl-4-oxo-7-propyl-3,4-dihydroimidazo[5,1-f][1,2,4]triazin-2-yl)phenyl)sulfonyl)azetidin-3-yl)(methyl)amino)propyl nitrate] | < 0.01 µM | –
CCCc1nn(C)c2c(=O)[nH]c(-c3cc(S(=O)(=O)N4CC(CCCOC(=O)CCCO[N+](=O)[O-])C4)ccc3OCC)nc12 [Compound 72, 3-(1-((4-ethoxy-3-(1-methyl-7-oxo-3-propyl-6,7-dihydro-1H-pyrazolo[4,3-d]pyrimidin-5-yl)phenyl)sulfonyl)azetidin-3-yl)propyl 4-(nitrooxy)butanoate] | < 0.01 µM | IC50 [2]: < 0.01 µM
CCCc1nn(C)c2c(=O)[nH]c(-c3cc(S(=O)(=O)N4CC(CN5CC(CCO)C5)C4)ccc3OCC)nc12 [Compound 29, 5-(2-ethoxy-5-((3-((3-(2-hydroxyethyl)azetidin-1-yl)methyl)azetidin-1-yl)sulfonyl)phenyl)-1-methyl-3-propyl-1,6-dihydro-7H-pyrazolo[4,3-d]pyrimidin-7-one] | 0.01 to 0.1 µM | IC50 [2]: 0.01 to 0.1 µM
CCCc1nc(C)c2c(=O)[nH]c(-c3cc(S(=O)(=O)N4CC(CCCO)C4)ccc3OCC)nn12 [Compound 44, 2-(2-ethoxy-5-((3-(3-hydroxypropyl)azetidin-1-yl)sulfonyl)phenyl)-5-methyl-7-propylimidazo[5,1-f][1,2,4]triazin-4(3H)-one] | < 0.01 µM | –
CCCc1nn(C)c2c(=O)[nH]c(-c3cc(S(=O)(=O)N4CC(N(C)CCO[N+](=O)[O-])C4)ccc3OCC)nc12 [Compound 23, 2-((1-((4-ethoxy-3-(1-methyl-7-oxo-3-propyl-6,7-dihydro-1H-pyrazolo[4,3-d]pyrimidin-5-yl)phenyl)sulfonyl)azetidin-3-yl)(methyl)amino)ethyl nitrate] | < 0.01 µM | IC50 [2]: < 0.01 µM
CCCc1nc(C)c2c(=O)[nH]c(-c3cc(S(=O)(=O)N4CC(CO)C4)ccc3OCC)nn12 [Compound 42, 2-(2-ethoxy-5-((3-(hydroxymethyl)azetidin-1-yl)sulfonyl)phenyl)-5-methyl-7-propylimidazo[5,1-f][1,2,4]triazin-4(3H)-one] | < 0.01 µM | –
CCCc1nc(C)c2c(=O)[nH]c(-c3cc(S(=O)(=O)N4CC(O)C4)ccc3OCC)nn12 [Compound 41, 2-(2-ethoxy-5-((3-hydroxyazetidin-1-yl)sulfonyl)phenyl)-5-methyl-7-propylimidazo[5,1-f][1,2,4]triazin-4(3H)-one] | < 0.01 µM | –
CCCc1nc(C)c2c(=O)[nH]c(-c3cc(S(=O)(=O)N4CC(N(C)CCCO)C4)ccc3OCC)nn12 [Compound 53, 2-(2-ethoxy-5-((3-((3-hydroxypropyl)(methyl)amino)azetidin-1-yl)sulfonyl)phenyl)-5-methyl-7-propylimidazo[5,1-f][1,2,4]triazin-4(3H)-one] | < 0.01 µM | –
CCCc1nc(C)c2c(=O)[nH]c(-c3cc(S(=O)(=O)N4CC(CCO[N+](=O)[O-])C4)ccc3OCC)nn12 [Compound 57, 2-(1-((4-ethoxy-3-(5-methyl-4-oxo-7-propyl-3,4-dihydroimidazo[5,1-f][1,2,4]triazin-2-yl)phenyl)sulfonyl)azetidin-3-yl) ethyl nitrate] | < 0.01 µM | –
CCCc1nc(C)c2c(=O)[nH]c(-c3cc(S(=O)(=O)N4CC(NCCCO)C4)ccc3OCC)nn12 [Compound 50, 2-(2-ethoxy-5-((3-((3-hydroxypropyl)amino)azetidin-1-yl)sulfonyl)phenyl)-5-methyl-7-propylimidazo[5,1-f][1,2,4]triazin-4(3H)-one] | < 0.01 µM | –
CCCc1nc(C)c2c(=O)[nH]c(-c3cc(S(=O)(=O)NC4CN(CCO[N+](=O)[O-])C4)ccc3OCC)nn12 [Compound 59, 2-(3-((4-ethoxy-3-(5-methyl-4-oxo-7-propyl-3,4-dihydroimidazo[5,1-f][1,2,4]triazin-2-yl)phenyl)sulfonamido)azetidin-1-yl)ethyl nitrate] | < 0.01 µM | –
CCCc1nc(C)c2c(=O)[nH]c(-c3cc(S(=O)(=O)N4CC(CCCO[N+](=O)[O-])C4)ccc3OCC)nn12 [Compound 58, 3-(1-((4-ethoxy-3-(5-methyl-4-oxo-7-propyl-3,4-dihydroimidazo[5,1-f][1,2,4]triazin-2-yl)phenyl)sulfonyl)azetidin-3-yl) propyl nitrate] | < 0.01 µM | –
CCCc1nc(C)c2c(=O)[nH]c(-c3cc(S(=O)(=O)N4CC(NCCO)C4)ccc3OCC)nn12 [Compound 49, 2-(2-ethoxy-5-((3-((2-hydroxyethyl)amino)azetidin-1-yl)sulfonyl)phenyl)-5-methyl-7-propylimidazo[5,1-f][1,2,4]triazin-4(3H)-one] | < 0.01 µM | –
CCCc1nc(C)c2c(=O)[nH]c(-c3cc(S(=O)(=O)N4CC(N(C)CCO[N+](=O)[O-])C4)ccc3OCC)nn12 [Compound 63, 2-((1-((4-ethoxy-3-(5-methyl-4-oxo-7-propyl-3,4-dihydroimidazo[5,1-f][1,2,4]triazin-2-yl)phenyl)sulfonyl)azetidin-3-yl)(methyl)amino)ethyl nitrate] | < 0.01 µM | –
CCCc1nc(C)c2c(=O)[nH]c(-c3cc(S(=O)(=O)NC4CN(CCO)C4)ccc3OCC)nn12 [Compound 46, 4-ethoxy-N-(1-(2-hydroxyethyl)azetidin-3-yl)-3-(5-methyl-4-oxo-7-propyl-3,4-dihydroimidazo[5,1-f][1,2,4]triazin-2-yl)benzenesulfonamide] | < 0.01 µM | –
CCCc1nc(C)c2c(=O)[nH]c(-c3cc(S(=O)(=O)N4CC(CO[N+](=O)[O-])C4)ccc3OCC)nn12 [Compound 56, (1-((4-ethoxy-3-(5-methyl-4-oxo-7-propyl-3,4-dihydroimidazo[5,1-f][1,2,4]triazin-2-yl)phenyl)sulfonyl)azetidin-3-yl)methyl nitrate] | < 0.01 µM | –
CCCc1nc(C)c2c(=O)[nH]c(-c3cc(S(=O)(=O)N4CC(CN)C4)ccc3OCC)nn12 [Compound 45] | < 0.01 µM | –
CCCc1nc(C)c2c(=O)[nH]c(-c3cc(S(=O)(=O)NC4CN(CCCO[N+](=O)[O-])C4)ccc3OCC)nn12 [Compound 60, 3-(3-((4-ethoxy-3-(5-methyl-4-oxo-7-propyl-3,4-dihydroimidazo[5,1-f][1,2,4]triazin-2-yl)phenyl)sulfonamido)azetidin-1-yl)propyl nitrate] | < 0.01 µM | –
CCCc1nc(C)c2c(=O)[nH]c(-c3cc(S(=O)(=O)N4CC(NCCCO[N+](=O)[O-])C4)ccc3OCC)nn12 [Compound 62, 3-((1-((4-ethoxy-3-(5-methyl-4-oxo-7-propyl-3,4-dihydroimidazo[5,1-f][1,2,4]triazin-2-yl)phenyl)sulfonyl)azetidin-3-yl)amino)propyl nitrate] | < 0.01 µM | –
CCCc1nc(C)c2c(=O)[nH]c(-c3cc(S(=O)(=O)N4CC(N(C)CCO)C4)ccc3OCC)nn12 [Compound 52, 2-(2-ethoxy-5-((3-((2-hydroxyethyl)(methyl)amino)azetidin-1-yl)sulfonyl)phenyl)-5-methyl-7-propylimidazo[5,1-f][1,2,4]triazin-4(3H)-one] | < 0.01 µM | –
CCCc1nc(C)c2c(=O)[nH]c(-c3cc(S(=O)(=O)N4CC(NCCO[N+](=O)[O-])C4)ccc3OCC)nn12 [Compound 61, 2-((1-((4-ethoxy-3-(5-methyl-4-oxo-7-propyl-3,4-dihydroimidazo[5,1-f][1,2,4]triazin-2-yl)phenyl)sulfonyl)azetidin-3-yl)amino)ethyl nitrate] | < 0.01 µM | –
CCCc1nc(C)c2c(=O)[nH]c(-c3cc(S(=O)(=O)NC4CN(CCCO)C4)ccc3OCC)nn12 [Compound 47, 4-ethoxy-N-(1-(3-hydroxypropyl)azetidin-3-yl)-3-(5-methyl-4-oxo-7-propyl-3,4-dihydroimidazo[5,1-f][1,2,4]triazin-2-yl)benzenesulfonamide] | < 0.01 µM | –
CCCc1nc(C)c2c(=O)[nH]c(-c3cc(S(=O)(=O)N4CC(O[N+](=O)[O-])C4)ccc3OCC)nn12 [Compound 55, 1-((4-ethoxy-3-(5-methyl-4-oxo-7-propyl-3,4-dihydroimidazo[5,1-f][1,2,4]triazin-2-yl)phenyl)sulfonyl)azetidin-3-yl nitrate] | < 0.01 µM | –
